Source: patent US20120107836A1, “DEVELOPMENT OF FLUORESCENTLY P-LOOP LABELLED KINASES FOR SCREENING OF INHIBITORS” (priority 2009, published 2012)
pKd: −log10 of the molar value.

What was measured:
[1] = molecular target: T1, p38α (Homo sapiens, UniProt Q16539, C119S/C162S/F327L/Y35C); assay: Endpoint fluorescence binding measurements with acrylodan-labelled p38α (glycine-rich loop / P-loop labelled, Y35C); settings: fluorescence response of acrylodan-labelled p38α
T1 construct: His-tag (N, cleaved yes); made in house; host or cells: E. coli BL21(DE3)
Source text: For acrylodan-labelled p38α, ratiometric fluorescence values (R=Iλ512/Iλ475) enabled reliable binding curves of detected compounds to be plotted, allowing for direct determination of the Kd of ligand binding. It should be noted that binding modes of detected molecules can initially be assessed in HTS formats by measuring plates from primary and/or secondary screens at different time points. Compounds that change the maximum ratiometric signal or Kd over time are likely to be Type II/III inhibitors. Alternatively, kinetics of the association (kon) and dissociation (koff) of selected compounds can be determined using cuvettes. To determine kon, a mini stir bar was placed in the bottom of each cuvette to ensure rapid mixing as inhibitor was delivered through the injection port located above the cuvette. […] Nearly instantaneous binding kinetics (<5 s) are characteristic of Type I inhibitors, while slower kinetics (>10 s) indicate the slower binding of Type II or Type III inhibitors to the DFG-out conformation. Following binding, koff was determined by adding a 10-fold excess of unlabelled kinase to shift the binding equilibrium away from the labelled kinase. Addition of excess unlabelled kinase causes the inhibitor to redistribute and dissociate from acrylodan-labelled p38α, resulting in a recovery of the fluorescence signal.

[2] = molecular target: T2, MKK7 (Homo sapiens, UniProt O14733, C202S/C260S/C280S); assay: Real-time and endpoint fluorescence measurements with glycine-rich loop acrylodan-labelled MKK7 kinase domain; assay type: binding
T2 sequence (O14733 101-408 C202S/C260S/C280S): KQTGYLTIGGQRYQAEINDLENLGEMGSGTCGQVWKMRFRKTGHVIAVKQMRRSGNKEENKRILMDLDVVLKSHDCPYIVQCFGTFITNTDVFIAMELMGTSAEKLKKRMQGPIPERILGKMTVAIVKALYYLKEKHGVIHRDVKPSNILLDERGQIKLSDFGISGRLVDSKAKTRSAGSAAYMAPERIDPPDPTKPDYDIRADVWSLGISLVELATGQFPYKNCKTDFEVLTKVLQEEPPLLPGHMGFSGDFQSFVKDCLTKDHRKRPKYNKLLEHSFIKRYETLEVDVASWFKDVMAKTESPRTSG
Procedure: FIG. 8. Real-time and endpoint fluorescence measurements of a Type II and Type I ligands using glycine-rich loop labelled MKK7. […] Real-time kinetic measurements and detection of binding and dissociation of K252a.
Therefore, the Kd of a Type I inhibitor (K252a) to P-loop labelled MKK7 was measured. […] FIG. 8C highlights the real-time kinetic measurements and detection of binding and dissociation of K252a.

T1 sequence (Q16539 whole entry Y35C/C119S/C162S/F327L): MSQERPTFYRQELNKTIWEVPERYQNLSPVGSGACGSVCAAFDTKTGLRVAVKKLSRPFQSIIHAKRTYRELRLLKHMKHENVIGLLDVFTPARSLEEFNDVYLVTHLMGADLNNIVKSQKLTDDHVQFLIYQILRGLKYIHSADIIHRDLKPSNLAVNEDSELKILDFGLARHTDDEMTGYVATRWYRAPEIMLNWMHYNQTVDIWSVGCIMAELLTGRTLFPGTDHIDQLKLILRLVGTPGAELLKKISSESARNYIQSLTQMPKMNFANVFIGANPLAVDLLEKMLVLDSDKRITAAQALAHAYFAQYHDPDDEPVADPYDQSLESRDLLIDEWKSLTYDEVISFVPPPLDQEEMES

In the case of `NC(=O)c1c(OCc2c(F)cc(Br)cc2F)nsc1NC(=O)NCCCCN1CCCC1` [CP547632], the “detection of ligand binding by the P-loop labelled p38α assay” value [1] was “detected”.

For `COC(=O)[C@@]1(O)C[C@H]2O[C@]1(C)n1c3ccccc3c3c4c(c5c6ccccc6n2c5c31)C(=O)NC4` [K252a], the pKd [2] was 7.42 and the “kinetics of binding and dissociation” value ([2]; real-time measurements, P-loop labelled MKK7) was “fast”.

In the case of `CNC(=O)c1cc(Oc2ccc(NC(=O)Nc3ccc(Cl)c(C(F)(F)F)c3)cc2)ccn1` [sorafenib], the “detection of ligand binding by P-loop labelled MKK7” value ([2]; negative controls, up to 10 μM) was “not detected up to 10 uM”.
